Measured values published in patent US12564622B2, “Preventing cytokine release syndrome” (priority 2017, dated 2026).
Values joined by “and” are separate entries in the source; they are usually repeats but may differ in a detail not shown here. Equal values may be shown once.

What was measured:
[1] = tested on: Eμ-ALL bearing C57BL/6 mice treated with mCART19; assay: mCART19 treatment of syngeneic Eμ-ALL B-ALL model; type: in vivo, mouse (C57BL/6); details: for catecholamine and cytokine release: 24 and 72 hours after mCART19; for therapeutic (antitumor) efficacy versus mCART19 alone: prophylaxis with ANP pump or metyrosine IP
Description: The Eμ-ALL cell line was derived from a lymphoid malignancy in an Eμ-myc transgenic mouse and upon IV injection, can develop B-ALL in C57BL/6 mice. The Eμ-ALL cells were co-cultured with feeder NIH-3T3 cells that were irradiated at 60 Gy, in RPMI 1640 media supplemented with 10% FBS, 0.05 mM 2-Mercaptoethanol and antibiotics. Eμ-ALL cells were transfected with luciferase via lentivirus. 2×10^6 Eμ-ALL cells were IV injected in female 6-8 week-old C57BL/6 mice via tail vein and after 6 days, mice were IP injected with cyclophosphamide (CPA) at 100 mg/kg for pre-conditioning as described elsewhere (see, e.g., Davila et al., 2013 PLoS One 8:e61338). One day after CPA treatment, 10×10^6 mCART19 cells were IV injected in the mice. Metyrosine was injected IP at 40 mg/kg/day for three days before the mCART19 injection. On the day of mCART19 injection, a fourth dose of 40 mg/kg was given IP and the mice were subsequently injected four more times at daily intervals at 30 mg/kg. One day before mCART19 injection, mini-osmotic pumps (ALZET) loaded with hANP with a release rate of 12 μg/day were implanted subcutaneously in the back of mice. Tumor load was monitored by Xenogen before and after mCART19 injection.

[2] = tested on: C. novyi-NT therapy-induced toxicity in mice bearing large subcutaneous CT26 tumors; assay: C. novyi-NT therapy of large subcutaneous CT26 tumors (therapy-induced toxicity); type: in vivo, mouse (BALB/c); details: for mice surviving: CT26 tumor-bearing BALB/c mice, 12×10^6 spores intratumorally, ANP (osmotic pump 12 μg/day) or metyrosine (IP pre-treatment) given with parental C. novyi-NT
Description: ANP concentrations in the supernatant of ANP-C. novyi-NT culture and in mouse plasma were measured by an Elisa kit from Ray Biotech (EIAR-ANP-1) that recognizes both human and mouse ANP. ANP in the supernatant of ANP-C. novyi-NT culture were shown biological activities as described elsewhere (Lofton et al., 1990 Biochem. Biophys. Res. Comm., 172:793-9). Briefly, bacterial supernatants were applied to cultured bovine aortic endothelial cells (BAOEC, Cell Applications Inc.) for 3 minutes. cGMP concentrations were then measured in BAOEC lysates by the Direct cGMP Elisa Kit from Enzo following the manufacture's instruction.
The colon cancer cell line CT26 was injected subcutaneously into the right flank of six to eight week old female Balb/C mice as described elsewhere (Qiao et al., 2011 Oncotarget, 2:59-68). Tumor sizes were measured with a caliper and calculated as ½*L*W*H as described elsewhere (Tomayko et al., 1989 Can. Chemother. Pharmacol., 24:148-54). When tumors reached 600-900 mm^3 after about two weeks, 12×10^6 spores of C. novyi-NT or ANP-C. novyi-NT at 3×10^6/μl were injected intratumorally into 4 central parts of the tumor with a 32 G Hamilton syringe needle. The bacteria typical germinated in the tumors within 24 hours, turning them necrotic. Hydration of the mice was supported by daily subcutaneous injections of […] saline. Human ANP (Sigma) was dissolved in saline, loaded in mini-osmotic pumps (ALZET) with a release rate of 12 μg/day and implanted subcutaneously in the back of mice 12 hours before the spore injection. Pumps loaded with saline served as controls. Metyrosine was dissolved in PBS and injected IP at 60 mg/kg/day for three days before the C. novyi injection to deplete catecholamines in storage. Two hours after the spore injection, 60 mg/kg of metyrosine was injected intraperitoneally (IP). For each of the next three days, IP injections of metyrosine at 30 mg/kg were administered. Control groups were injected with PBS at the same time points.
Blood samples were collected into tubes containing 5 mM EDTA and 4 mM sodium metabisulfite after puncturing the facial vein or (terminally) by cardiac puncture. Subsequently, the samples were centrifuged and the plasmas were stored at −80° C. prior to analysis. Catecholamines (dopamine, norepinephrine and epinephrine) were measured using the 3-CAT Research ELISA kit from Labor Diagnostika Nord GmbH/Rocky Mountain Diagnostics. Cytokines were measured using Luminex assays based on Millipore Mouse and Human Cytokine/Chemokine panels.
ANP concentrations in the supernatant of ANP-C. novyi-642 NT culture and in mouse plasma were measured with an Elisa kit from Ray Biotech (EIAR-ANP-1) that recognizes both human and mouse ANP. […] Briefly, bacterial supernatants were applied to cultured bovine aortic endothelial cells (BAOEC, Cell Applications Inc.) for 3 minutes. cGMP concentrations were then measured in BAOEC lysates by the Direct cGMP Elisa Kit from Enzo following the manufacture's instruction.
The colon cancer cell line CT26 was injected subcutaneously into the right flank of six to eight weeks old female Balb/C mice as described elsewhere (see, e.g., Qiao et al. 2011 Oncotarget 2:59-68). Tumor sizes were measured with a caliper and calculated as ½*L*W*H as described elsewhere (see, e.g., Tomayko et al. 1989 Cancer Chemother Pharmacol 24:148-154). When tumors reached 600-900 mm^3 after about two weeks, 12×10^6 spores of C. novyi-NT or ANP-C. novyi-NT at 3×10^6/μl were injected intratumorally into 4 central parts of the tumor with a 32 G Hamilton syringe needle. The bacteria typical germinated in the tumors within 24 hours, turning them necrotic. Hydration of the mice was supported by daily subcutaneous injections of 500 μl saline. Human ANP (Sigma) was dissolved in saline, loaded in mini-osmotic pumps (ALZET) with a release rate of 12 μg/day and implanted subcutaneously in the back of mice 12 hours before the spore injection. Pumps loaded with saline served as controls. […]

[3] = plasma, 36 hours after spore injection, versus parental C. novyi-NT alone

SMILES	catecholamine and cytokine release [1]	therapeutic (antitumor) efficacy versus mCART19 alone [1]	mice surviving [2]	robust but not curative response, of surviving mice ([2]; CT26 tumors, surviving mice)	tissue damage and leukocyte/myeloid cell infiltration in lungs, liver, spleen ([2]; histology, versus parental C. novyi-NT)	circulating catecholamines [2, 3]	circulating inflammatory cytokines and chemokines [2, 3]
CC[C@H](C)[C@@H]1NC(=O)[C@H](CCCNC(=N)N)NC(=O)[C@H](CC(=O)O)NC(=O)[C@H](CCSC)NC(=O)[C@H](CCCNC(=N)N)NC(=O)CNC(=O)CNC(=O)[C@H](Cc2ccccc2)NC(=O)[C@@H](NC(=O)[C@H](CO)NC(=O)[C@H](CO)NC(=O)[C@H](CCCNC(=N)N)NC(=O)[C@H](CCCNC(=N)N)NC(=O)[C@H](CC(C)C)NC(=O)[C@@H](N)CO)CSSC[C@@H](C(=O)N[C@@H](CC(N)=O)C(=O)N[C@@H](CO)C(=O)N[C@@H](Cc2ccccc2)C(=O)N[C@@H](CCCNC(=N)N)C(=O)N[C@@H](Cc2ccc(O)cc2)C(=O)O)NC(=O)CNC(=O)[C@H](CC(C)C)NC(=O)CNC(=O)[C@H](CO)NC(=O)[C@H](CCC(N)=O)NC(=O)[C@H](C)NC(=O)CNC1=O [ANP, atrial natriuretic peptide]	reduced	matched the therapeutic efficacy	~75% and ~73%	20% and 23%	major reductions	major reductions	–
C[C@](N)(Cc1ccc(O)cc1)C(=O)O [metyrosine, α-methyl-tyrosine]	reduced	matched the therapeutic efficacy	85%	–	–	substantially reduced	substantially reduced
